# Data taken from patent US11413278B2, “Compounds and methods for promoting stress resistance” (priority 2015, dated 2022).
# “Also recorded” adds a separate entry of the source. Read-outs that look alike come from different tables or passages of the source.
# Experiments:
# human PARP1 = biological target: T1, human PARP1 (Homo sapiens, UniProt P09874); assay: PARP inhibitor assay (HT Fluorescent Homogeneous PARP Inhibition Assay Kit); assay type: biochemical
# T1 construct: purchased Trevigen
# Outline: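 Human PARP1 with NAD and activated DNA, compounds at 10 μM final, 30 min at room temperature in dark. Resazurin/diaphorase cycling mix then added for 1 hr in dark before stop buffer; fluorescent homogeneous kit read-out.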
# FOXO3 = assay: qPCR analysis of FOXO3-regulated genes; assay type: cell-based, human; conditions: for fold induction at 10 µM: Homo sapiens
# Outline: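 WI-38 cells treated with compound at 10 μM for 24 h, followed by Cells-to-Ct RT-qPCR of FOXO3 target genes normalised to B2M, PPIA and GAPDH. FOXO3 or NRF2 dependence tested by prior 10 nM siRNA knockdown (36 h transfection, compound added ~24 h after replating).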
# NRF2 = assay: qPCR analysis of NRF2-regulated genes; assay type: cell-based, human; conditions: for fold induction at 10 µM: Homo sapiens
# Outline: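 WI-38 cells treated with compound at 10 μM for 24 hrs, then processed by Cells-to-Ct for RNA isolation, RT and qPCR of NRF2-regulated genes (HMOX1, NQO1, GCLC, GSTM1). Expression normalized to B2M, PPIA and GAPDH; siRNA knockdown of FOXO3 or NRF2 (10 nM) preceded treatment in some runs.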
# C. elegans = C. elegans lifespan assays (liquid and plate); assay type: in vivo, Caenorhabditis elegans; conditions: for ILS at 60 µM / ILS at 66 µM: Caenorhabditis elegans
# WI-38 cells = conditions: no H2O2 stress, 10 uM; negative control 0.41% ± 0.23%
# Experimental: WI-38 cells were seeded on 384-well plates for 24 hrs and then incubated with small molecules for 24 hrs. […] Images were collected on an INCell Analyzer 2000 (GE) and analyzed with the Developer software.
# T1 sequence (P09874 whole entry): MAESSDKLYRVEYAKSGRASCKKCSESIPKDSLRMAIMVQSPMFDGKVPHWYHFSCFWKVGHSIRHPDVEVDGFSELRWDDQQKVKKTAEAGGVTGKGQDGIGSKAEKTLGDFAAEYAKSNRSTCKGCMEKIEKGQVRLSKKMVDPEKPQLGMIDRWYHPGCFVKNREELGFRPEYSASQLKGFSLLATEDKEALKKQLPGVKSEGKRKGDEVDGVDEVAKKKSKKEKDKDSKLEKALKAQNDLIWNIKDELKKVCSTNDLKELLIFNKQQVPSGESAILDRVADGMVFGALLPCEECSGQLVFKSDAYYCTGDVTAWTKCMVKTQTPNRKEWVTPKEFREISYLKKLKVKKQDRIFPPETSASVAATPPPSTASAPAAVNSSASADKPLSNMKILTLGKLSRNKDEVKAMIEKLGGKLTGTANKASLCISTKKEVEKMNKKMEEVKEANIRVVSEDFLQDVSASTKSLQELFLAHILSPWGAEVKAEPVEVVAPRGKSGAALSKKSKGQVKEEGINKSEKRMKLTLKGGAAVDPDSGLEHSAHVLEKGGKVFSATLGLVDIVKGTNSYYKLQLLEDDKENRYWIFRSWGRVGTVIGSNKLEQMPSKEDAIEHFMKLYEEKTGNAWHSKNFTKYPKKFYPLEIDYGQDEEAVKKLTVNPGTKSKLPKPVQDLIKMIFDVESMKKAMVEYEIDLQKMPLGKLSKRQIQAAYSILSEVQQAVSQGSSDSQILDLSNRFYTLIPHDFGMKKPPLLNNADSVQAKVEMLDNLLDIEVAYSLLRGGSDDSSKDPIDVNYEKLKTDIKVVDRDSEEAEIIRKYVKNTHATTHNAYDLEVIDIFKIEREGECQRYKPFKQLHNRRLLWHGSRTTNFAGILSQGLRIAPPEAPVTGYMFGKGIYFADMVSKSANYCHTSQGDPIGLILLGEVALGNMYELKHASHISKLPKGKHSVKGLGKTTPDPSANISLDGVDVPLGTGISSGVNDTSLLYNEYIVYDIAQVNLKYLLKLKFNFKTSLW
compound,measurement,setting,value
CC(C)(C)c1ccc(OCC(=O)Nc2ccc3c4c(cccc24)C(=O)NC3=O)cc1 [O22],Inhibition of PARP1,"human PARP1; 10 μM, in vitro",confirmed as PARP inhibitors; also recorded: inhibitors of PARP1
same,L = PARP inhibition,human PARP1; score,1
same,E = Potential FOXO3 Activation,FOXO3; 2-point score,0
same,fold induction at 10 µM,"FOXO3; 24 h, Assay 10(m), at 10 uM, qPCR, read-out: Induction of FOXO3-regulated genes: GADD45A normalized fold-change",1.23
same,fold induction at 10 µM,"FOXO3; 10 μM, 24 hrs, WI-38 cells, qPCR, normalized to B2M, n = 4, read-out: GADD45A expression, normalized fold change (FOXO3-regulated gene)",1.23
same,fold induction at 10 µM,"FOXO3; WI-38 cells, 10 μM, 24 hrs, n=4, qPCR normalized by B2M, read-out: DDB1 Normalized fold change",1.04
same,fold induction at 10 µM,"FOXO3; WI-38 cells, 10 μM, 24 hrs, n=4, qPCR normalized by B2M, read-out: GADD45A Normalized fold change",1.23
same,fold induction at 10 µM,"FOXO3; WI-38 cells, 10 μM, 24 hrs, n=4, qPCR normalized by B2M, read-out: SESN1 Normalized fold change",1.29
same,fold induction at 10 µM,"FOXO3; fold change, qPCR, WI-38 cells, 10 μM, 24 hrs, read-out: Summary of effects on FOXO3-regulated genes: GADD45A",1.23
same,fold induction at 10 µM,"FOXO3; qPCR, WI-38 cells, 10 μM, n=4, 24 hrs, normalized by B2M, read-out: CAT Normalized fold change",1.04
same,fold induction at 10 µM,"FOXO3; qPCR, WI-38 cells, 10 μM, n=4, 24 hrs, normalized by B2M, read-out: SOD2 Normalized fold change",1.02
same,fold induction at 10 µM,"FOXO3; qPCR, WI-38 cells, 10 μM, n=4, 24 hrs, normalized by B2M, read-out: TXNIP Normalized fold change",0.742
same,K = Sestrin induction,FOXO3; score,0
same,E = Potential FOXO3 Activation,FOXO3; summary score,0
same,F = Potential NRF2 Activation,NRF2; 2-point score,0
same,fold induction at 10 µM,"NRF2; 24 h, Assay 12(o), at 10 uM, qPCR, read-out: Induction of NRF2-regulated genes: GCLC normalized fold-change",0.66
same,fold induction at 10 µM,"NRF2; rounded fold change, WI-38 cells, 10 μM, 24 hrs, read-out: Summary of effects on NRF2-regulated genes: GCLC",0.66
same,fold induction at 10 µM,"NRF2; 10 μM, 24 hrs, WI-38 cells, qPCR, normalized to B2M, n = 4, read-out: GCLC expression, normalized fold change (NRF2-regulated gene)",0.66
same,fold induction at 10 µM,"NRF2; WI-38 cells, 10 μM, 24 hrs, n=4, qPCR normalized by B2M, read-out: GCLC Normalized fold change",0.659
same,fold induction at 10 µM,"NRF2; WI-38 cells, 10 μM, 24 hrs, n=4, qPCR normalized by B2M, read-out: GSTM1 Normalized fold change",0.877
same,fold induction at 10 µM,"NRF2; WI-38 cells, 10 μM, 24 hrs, n=4, qPCR normalized by B2M, read-out: HMOX1 Normalized fold change",0.765
same,fold induction at 10 µM,"NRF2; WI-38 cells, 10 μM, 24 hrs, n=4, qPCR normalized by B2M, read-out: NQO1 Normalized fold change",0.929
same,F = Potential NRF2 Activation,NRF2; summary score,0
same,ILS at 60 µM,"C. elegans; in liquid, wild type, with FuDR, 1.0 × 10^9 bacteria/ml, read-out: relative change of mean lifespan vs control, Trial 1",-24.5%
same,ILS at 60 µM,"C. elegans; in liquid, wild type, with FuDR, 2.5 × 10^9 bacteria/ml, read-out: relative change of mean lifespan vs control, Trial 2",-2.3%
same,ILS at 60 µM,"C. elegans; on plate, CF512 temperature-sensitive sterile animals, without FuDR, 2.0 × 10^10 bacteria/ml, read-out: relative change of mean lifespan vs control, Trial 3",-52.8%
same,ILS at 66 µM,"C. elegans; Assay 2(z), 1.0 × 10^9 bacteria/ml, wild type + FuDR (2012 July), read-out: Lifespan assay in liquid",-24.5%
same,ILS at 66 µM,"C. elegans; Assay 3(aa), 2.5 × 10^9 bacteria/ml, wild type + FuDR, read-out: Lifespan assay in liquid",-2.3%
same,ILS at 66 µM,"C. elegans; Assay 4(ab), 2.0 × 10^10 bacteria/ml, CF512 worms, no FuDR, read-out: Lifespan assay on plates",-52.8%
same,O = Life span- extending scores in worms,"C. elegans; score scale 0 to 2, 4 to 6 independent trials",0
same,M = Lifespan-extending scores in worms,C. elegans; summary score,0
same,"Percentage of propidium iodide-positive dead cells (no H2O2 stress treatment), at 10 uM",WI-38 cells,"0.37% ± 0.14%,"
